# From patent EP4644383A1 (Jiangsu Yahong Meditech Co., Ltd., priority 2022, dated 2024)
# Like-named read-outs stand apart in the source and are kept apart here.
# Legend:
# Type in all cases: biochemical
# FGFR2 = target: T1, FGFR2 (Homo sapiens, UniProt P21802); experiment: FGFR2 kinase activity inhibition assay (LanthaScreen TR-FRET)
# T1 construct: FGFR2's cytoplasmic domain [399-821 (terminal) amino acids]; purchased Carna 08-134
# Outline: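 GST-fused FGFR2 cytoplasmic domain (aa 399-821) was run as in the FGFR1 protocol: preincubated 10 min at 23 °C with compound (3-fold series from 1 µM) in 50 mM HEPES pH 7.5, 10 mM MgCl2, 4 mM DTT, 1% DMSO. A 2× mix of 28 nM fluorescein-poly GT/28 µM ATP then reacted 30 min. Tb-PY20/EDTA quench preceded the TR-FRET 520/495 read.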
# FGFR1 = target: T2, FGFR1 (Homo sapiens, UniProt P11362); experiment: FGFR1 kinase activity inhibition assay (LanthaScreen TR-FRET)
# T2 construct: cytoplasmic domain [398-822 (terminal) amino acids]; purchased Carna 08-133
# Outline: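 Emission ratio 520 nm/495 nm by TR-FRET after stopping reaction with 10 mM EDTA and 60 min incubation at 22°C. Inhibition normalized between no-enzyme (min) and DMSO (max) controls, then fitted to a four-parameter curve (Top, Bottom, HillSlope).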
# FGFR3 = target: T3, FGFR3 (Homo sapiens, UniProt P22607); experiment: FGFR3 kinase activity inhibition assay (LanthaScreen TR-FRET); conditions: for Selectivity (X) FGFR1/FGFR3: ratio of IC50 FGFR1/FGFR3, selectivity towards FGFR3; for Selectivity (X) FGFR2/FGFR3: ratio of IC50 FGFR2/FGFR3, selectivity towards FGFR3; for Selectivity (X) FGFR4/FGFR3: ratio of IC50 FGFR4/FGFR3, selectivity towards FGFR3
# T3 construct: FGFR3's cytoplasmic domain [436-806 (terminal) amino acids]; purchased Carna 08-135
# Outline: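 Read-out is TR-FRET, with the 520 nm/495 nm emission ratio normalised to DMSO (max) and enzyme-free (min) controls. Enzyme was the FGFR3 cytoplasmic domain, residues 436-806. EDTA (10 mM) stopped the reaction, followed by 60 min at 22 °C before reading.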
# FGFR4 = target: T4, FGFR4 (Homo sapiens, UniProt P22455); experiment: FGFR4 kinase activity inhibition assay (LanthaScreen TR-FRET)
# T4 construct: FGFR4's cytoplasmic domain [460-802 (terminal) amino acids]; purchased Carna 08-136
# Outline: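 GST-tagged cytoplasmic domains (FGFR2 aa 399-821; FGFR4 aa 460-802) were preincubated 10 min at 23 °C with compound (top 1 µM, threefold dilutions). Then 28 nM fluorescein-poly GT and 28 µM ATP were added for 30 min at 23 °C in HEPES pH 7.5 buffer. Tb-PY20 TR-FRET 520/495 ratio gave % inhibition versus DMSO and no-enzyme controls.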
# [1] = FGFR2 kinase, TR-FRET, read-out: IC50 (nM) FGFR2
# [2] = FGFR1 kinase, TR-FRET, read-out: IC50 (nM) FGFR1
# [3] = FGFR3 kinase, TR-FRET, read-out: IC50 (nM) FGFR3
# [4] = FGFR4 kinase, TR-FRET, read-out: IC50 (nM) FGFR4
# T2 sequence (P11362 398-822): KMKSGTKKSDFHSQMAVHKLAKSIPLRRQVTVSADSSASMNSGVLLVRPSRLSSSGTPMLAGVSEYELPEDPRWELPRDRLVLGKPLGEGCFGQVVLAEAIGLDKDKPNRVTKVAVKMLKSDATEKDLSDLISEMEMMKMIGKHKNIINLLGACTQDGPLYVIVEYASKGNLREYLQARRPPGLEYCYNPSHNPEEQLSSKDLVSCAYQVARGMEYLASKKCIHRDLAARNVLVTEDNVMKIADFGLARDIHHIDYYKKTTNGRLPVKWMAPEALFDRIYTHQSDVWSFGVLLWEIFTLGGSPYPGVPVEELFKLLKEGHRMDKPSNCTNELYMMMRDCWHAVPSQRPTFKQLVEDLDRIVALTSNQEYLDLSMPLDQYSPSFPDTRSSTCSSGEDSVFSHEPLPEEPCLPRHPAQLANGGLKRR
# T4 sequence (P22455 460-802): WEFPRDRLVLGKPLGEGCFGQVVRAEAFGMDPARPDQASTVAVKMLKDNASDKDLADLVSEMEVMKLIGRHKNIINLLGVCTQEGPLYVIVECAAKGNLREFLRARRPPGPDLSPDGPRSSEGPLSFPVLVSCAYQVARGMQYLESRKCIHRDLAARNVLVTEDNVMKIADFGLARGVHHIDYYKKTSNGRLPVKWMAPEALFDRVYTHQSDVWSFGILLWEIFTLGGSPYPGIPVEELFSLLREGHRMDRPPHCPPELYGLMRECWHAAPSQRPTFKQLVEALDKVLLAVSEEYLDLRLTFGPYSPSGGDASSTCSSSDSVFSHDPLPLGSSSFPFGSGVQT
# T1 sequence (P21802 399-821): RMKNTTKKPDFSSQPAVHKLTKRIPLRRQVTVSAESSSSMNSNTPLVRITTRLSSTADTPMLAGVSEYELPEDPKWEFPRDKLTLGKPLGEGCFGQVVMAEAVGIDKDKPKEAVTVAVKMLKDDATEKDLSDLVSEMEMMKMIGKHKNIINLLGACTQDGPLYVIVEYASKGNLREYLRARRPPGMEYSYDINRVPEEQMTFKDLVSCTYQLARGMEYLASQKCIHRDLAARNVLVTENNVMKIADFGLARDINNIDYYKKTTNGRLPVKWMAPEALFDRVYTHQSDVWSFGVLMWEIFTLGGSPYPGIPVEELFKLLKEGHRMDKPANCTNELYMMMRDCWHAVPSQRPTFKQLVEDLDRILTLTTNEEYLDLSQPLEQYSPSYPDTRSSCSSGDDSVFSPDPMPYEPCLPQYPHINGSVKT
# T3 sequence (P22607 436-806): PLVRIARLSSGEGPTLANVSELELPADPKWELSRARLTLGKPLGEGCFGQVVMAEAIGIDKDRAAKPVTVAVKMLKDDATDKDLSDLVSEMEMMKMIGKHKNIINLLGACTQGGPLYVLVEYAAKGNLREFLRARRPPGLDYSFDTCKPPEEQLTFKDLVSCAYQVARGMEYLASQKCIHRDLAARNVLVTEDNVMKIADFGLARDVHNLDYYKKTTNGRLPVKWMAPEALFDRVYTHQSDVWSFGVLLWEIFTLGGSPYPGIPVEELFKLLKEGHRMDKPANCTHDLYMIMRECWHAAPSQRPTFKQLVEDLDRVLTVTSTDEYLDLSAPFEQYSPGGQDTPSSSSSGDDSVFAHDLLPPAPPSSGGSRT
Selectivity (X) FGFR1/FGFR3 (FGFR3),Selectivity (X) FGFR2/FGFR3 (FGFR3),Selectivity (X) FGFR4/FGFR3 (FGFR3),IC50 (FGFR2; [1]) [nM],IC50 (FGFR1; [2]) [nM],IC50 (FGFR3; [3]) [nM],IC50 (FGFR4; [4]) [nM],Structure (SMILES),IC50 (FGFR2) [nM],IC50 (FGFR1) [nM],IC50 (FGFR3) [nM],IC50 (FGFR4) [nM]
A (A represents 1 ≤ multiple X<20),A (A represents 1 ≤ multiple X<20),B (B represents 20 ≤ multiple X<50),< 1,1 to 10,< 1,1 to 10,"C[C@@H](Oc1cc(F)c2[nH]nc(-c3cnn(C)c3)c2c1)c1c(Cl)cncc1Cl [Example 5, (R)-5-(1-(3,5-dichloropyridin-4-yl)ethoxy)-7-fluoro-3-(1-methyl-1H-pyrazol-4-yl)-1H-indazole]",,,,
B (B represents 20 ≤ multiple X<50),A (A represents 1 ≤ multiple X<20),B (B represents 20 ≤ multiple X<50),1 to 10,10 to 100,< 1,10 to 100,"CC(Oc1ccc2[nH]nc(-c3cnn(C)c3)c2c1)c1cccn2nccc12 (stereo not drawn) [Example 132, 3-(1-methyl-1H-pyrazol-4-yl)-5-(1-(pyrazolo[1,5-a]pyridin-4-yl)ethoxy)-1H-indazole]",,,,
A (A represents 1 ≤ multiple X<20),A (A represents 1 ≤ multiple X<20),B (B represents 20 ≤ multiple X<50),1 to 10,1 to 10,< 1,10 to 100,"Cc1cc(C(C)Oc2ccc3[nH]nc(-c4cnn(C)c4)c3c2)c2nccnc2c1 (stereo not drawn) [Example 140, 7-methyl-5-(1-((3-(1-methyl-1H-pyrazol-4-yl)-1H-indazol-5-yl)oxy)ethyl)qu inoxaline]",,,,
B (B represents 20 ≤ multiple X<50),A (A represents 1 ≤ multiple X<20),C (C represents 50 ≤ multiple X<100),1 to 10,10 to 100,< 1,10 to 100,"CC(Oc1ccc2[nH]nc(-c3cnn(C4CN(S(=O)(=O)N(C)C)C4)c3)c2c1)c1cccc2nccnc12 (stereo not drawn) [Example 194, N,N-dimethyl-3-(4-(5-(1-(quinoxalin-5-yl)ethoxy)-1H-indazol-3-yl)-1H-pyrazol-1-yl)azetidine-1-sulfonamide]",,,,
A (A represents 1 ≤ multiple X<20),A (A represents 1 ≤ multiple X<20),C (C represents 50 ≤ multiple X<100),1 to 10,10 to 100,1 to 10,> 100,"C[C@@H](Oc1cc(F)c2[nH]nc(-c3cnn(CCN(C)C)c3)c2c1)c1c(Cl)cncc1Cl [Example 15, (R)-2-(4-(5-(1-(3,5-dichloropyridin-4-yl)ethoxy)-7-fluoro-1H-indazol-3-yl)-1H-pyrazol-1-yl)-N,N-dimethylethan-1-amine]",,,,
A (A represents 1 ≤ multiple X<20),A (A represents 1 ≤ multiple X<20),A (A represents 1 ≤ multiple X<20),1 to 10,10 to 100,1 to 10,10 to 100,"C[C@@H](Oc1cc(F)c2[nH]nc(-c3cnn(CC4CC4)c3)c2c1)c1c(Cl)cncc1Cl [Example 14, (R)-3-(1-(cyclopropylmethyl)-1H-pyrazol-4-yl)-5-(1-(3,5-dichloropyridin-4-yl)ethoxy)-7-fluoro-1H-indazole]",,,,
A (A represents 1 ≤ multiple X<20),A (A represents 1 ≤ multiple X<20),D (D represents 100 ≤ multiple X),1 to 10,1 to 10,< 1,10 to 100,"C[C@@H](Oc1ccc2[nH]nc(-c3cnn(CCN4CCC5(CCNC5=O)CC4)c3)c2n1)c1c(Cl)cncc1Cl [Example 62, (R)-8-(2-(4-(5-(1-(3,5-dichloropyridin-4-yl)ethoxy)-1H-pyrazolo[4,3-b]pyridin-3-yl)-1H-pyrazol-1-yl)ethyl)-2,8-diazaspiro[4.5]dec an-1-one]",,,,
A (A represents 1 ≤ multiple X<20),A (A represents 1 ≤ multiple X<20),B (B represents 20 ≤ multiple X<50),< 1,1 to 10,< 1,1 to 10,"Cc1cc2nccnc2c(C(C)Oc2cc3c(-c4cnn(C)c4)n[nH]c3cc2F)n1 (stereo not drawn) [Example 234, 5-(1-((6-fluoro-3-(1-methyl-1H-pyrazol-4-yl)-1H-indazol-5-yl)oxy)ethyl)-7-methylpyrido[3,4-b]pyrazine]",,,,
B (B represents 20 ≤ multiple X<50),A (A represents 1 ≤ multiple X<20),C (C represents 50 ≤ multiple X<100),1 to 10,10 to 100,1 to 10,10 to 100,"CC(Oc1ccc2[nH]nc(-c3cnn(C4CN(C)C4)c3)c2c1)c1cccc2nccnc12 (stereo not drawn) [Example 158, 5-(1-((3-(1-(1-methylazetidin-3-yl)-1H-pyrazol-4-yl)-1H-indazol-5-yl)oxy)ethyl)q uinoxaline]",,,,
D (D represents 100 ≤ multiple X),B (B represents 20 ≤ multiple X<50),C (C represents 50 ≤ multiple X<100),10 to 100,> 100,< 1,10 to 100,"CC(Oc1ccc2[nH]nc(-c3cnn(C4CN(C(=O)CO)C4)c3)c2c1)c1cc(Cl)cc2ncccc12 (stereo not drawn) [Example 189, 1-(3-(4-(5-(1-(7-chloroquinolin-5-yl)ethoxy)-1H-indazol-3-yl)-1H-pyrazol-1-yl)azetidin-1-yl)-2-hydroxyethan-1-one]",,,,
C (C represents 50 ≤ multiple X<100),A (A represents 1 ≤ multiple X<20),C (C represents 50 ≤ multiple X<100),1 to 10,10 to 100,< 1,10 to 100,"Cc1cc(C(C)Oc2ccc3[nH]nc(-c4cnn(C5CN(C(=O)C(C)(C)O)C5)c4)c3c2)c2cccnc2c1 (stereo not drawn) [Example 213, 2-hydroxy-2-methyl-1-(3-(4-(5-(1-(7-methylquinolin-5-yl)ethoxy)-1H-indazol-3-yl)-1H-pyrazol-1-yl)azetidin-1-yl)propan-1-one]",,,,
B (B represents 20 ≤ multiple X<50),A (A represents 1 ≤ multiple X<20),B (B represents 20 ≤ multiple X<50),1 to 10,10 to 100,< 1,10 to 100,"CC(Oc1ccc2[nH]nc(-c3cnn(C)c3)c2c1)c1cc(F)cc2ncccc12 (stereo not drawn) [Example 124, 7-fluoro-5-(1-((3-(1-methyl-1H-pyrazol-4-yl)-1H-indazol-5-yl)oxy)ethyl)qu inoline]",,,,
C (C represents 50 ≤ multiple X<100),B (B represents 20 ≤ multiple X<50),D (D represents 100 ≤ multiple X),> 100,> 100,10 to 100,> 100,"CNCCNC(=O)c1ccc2[nH]nc(-c3cn(C)nn3)c2c1 [Example 74, 3-(1-methyl-1H-1,2,3-triazol-4-yl)-N-(2-(methylamino)ethyl)-1H-indazole-5-carboxamide]",,,,

Structure (SMILES),Selectivity (X) FGFR1/FGFR3 (FGFR3),Selectivity (X) FGFR2/FGFR3 (FGFR3),Selectivity (X) FGFR4/FGFR3 (FGFR3),IC50 (FGFR2; [1]) [nM],IC50 (FGFR1; [2]) [nM],IC50 (FGFR3; [3]) [nM],IC50 (FGFR4; [4]) [nM],IC50 (FGFR2) [nM],IC50 (FGFR1) [nM],IC50 (FGFR3) [nM],IC50 (FGFR4) [nM]
"C[C@@H](Oc1ccc2[nH]nc(-c3cnn(Cc4cccnc4)c3)c2n1)c1c(Cl)cncc1Cl [Example 28, (R)-5-(1-(3,5-dichloropyridin-4-yl)ethoxy)-3-(1-(pyridin-3-ylmethyl)-1H-pyrazol-4-yl)-1H-pyrazolo[4,3-b]pyridine]",A (A represents 1 ≤ multiple X<20),A (A represents 1 ≤ multiple X<20),A (A represents 1 ≤ multiple X<20),,,,,< 1,1 to 10,< 1,1 to 10
"CC(Oc1ccc2[nH]nc(-c3cnn(C)c3)c2c1)c1cccc2ncc(Cl)cc12 (stereo not drawn) [Example 94, 3-chloro-5-(1-((3-(1-methyl-1H-pyrazol-4-yl)-1H-indazol-5-yl)oxy)ethyl)quin oline]",C (C represents 50 ≤ multiple X<100),A (A represents 1 ≤ multiple X<20),B (B represents 20 ≤ multiple X<50),,,,,10 to 100,> 100,10 to 100,> 100
